Data as given in patent publication US20230114728A1 (Venatorx Pharmaceuticals, Inc., priority 2019, published 2023).
Values after ≈ are worked out from the molar mass of the structure shown.

What was measured:
[1] = tested on: A. baumannii CDC-0045 producing TEM-1D, OXA-23, and OXA-69; experiment: Broth microdilution MIC in iron-depleted CAMHB (IDM); assay type: cell-based; conditions: Acinetobacter baumannii, read-out: Minimum Inhibitory Concentration, CDC-0045
[2] = Bocillin-FL fluorescence polarization competition binding assay, A. baumannii PBP3; conditions: fluorescence polarization competition binding assay using Bocillin-FL; column 3; read-out: 4. baumannii PBP1a Potency
How it was run: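 Fluorescence polarization (ex 490/em 520 nm) competition of inhibitors against Bocillin-FL at 0.1 μM, read up to 60 min. Final PBP levels: E. coli PBP3 1.5 μM; A. baumannii PBP2 2.5 μM, PBP3 0.2 μM in Tris pH 8.0/NaCl/glycerol/Tween 20; N. gonorrhoeae PBP2 […] in Hepes pH 8.0/NaCl/glycerol. EC50 = concentration halving PBP-bound Bocillin-FL.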

A. baumannii PBP1a = A. baumannii PBP1a (Acinetobacter baumannii, UniProt A0ABX6CK30); experiment: Bocillin-FL fluorescence polarization competition binding assay, A. baumannii PBP1a; conditions: fluorescence polarization competition binding assay using Bocillin-FL; column 1; read-out: A. baumannii PBP1a Potency
A. baumannii PBP1a, sequence (A0ABX6CK30 entry or part of it): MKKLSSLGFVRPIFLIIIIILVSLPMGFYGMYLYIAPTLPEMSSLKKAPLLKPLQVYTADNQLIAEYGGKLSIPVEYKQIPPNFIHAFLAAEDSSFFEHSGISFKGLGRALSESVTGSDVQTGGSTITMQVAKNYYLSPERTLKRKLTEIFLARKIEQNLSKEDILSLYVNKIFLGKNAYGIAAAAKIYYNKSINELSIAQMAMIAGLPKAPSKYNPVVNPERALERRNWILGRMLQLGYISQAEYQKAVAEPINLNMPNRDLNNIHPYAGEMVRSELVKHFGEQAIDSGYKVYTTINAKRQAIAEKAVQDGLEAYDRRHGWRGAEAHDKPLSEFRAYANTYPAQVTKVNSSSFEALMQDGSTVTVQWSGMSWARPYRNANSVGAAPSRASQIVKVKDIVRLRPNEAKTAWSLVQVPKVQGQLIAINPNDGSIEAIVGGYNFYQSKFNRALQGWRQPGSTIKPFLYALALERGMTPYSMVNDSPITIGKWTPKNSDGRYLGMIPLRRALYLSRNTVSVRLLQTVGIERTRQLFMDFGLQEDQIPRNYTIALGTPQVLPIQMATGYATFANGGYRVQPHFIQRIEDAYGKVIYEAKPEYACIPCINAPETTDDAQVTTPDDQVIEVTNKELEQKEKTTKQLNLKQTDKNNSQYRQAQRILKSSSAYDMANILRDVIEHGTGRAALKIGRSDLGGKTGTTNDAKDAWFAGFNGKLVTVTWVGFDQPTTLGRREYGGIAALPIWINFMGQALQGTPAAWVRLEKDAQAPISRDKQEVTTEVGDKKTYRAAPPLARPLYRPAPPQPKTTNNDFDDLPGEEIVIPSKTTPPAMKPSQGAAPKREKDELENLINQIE
From the text: Example I: Experimental Method for Penicillin-Binding Protein Binding Assays with Bocillin-FL Via Fluorescence Polarization
To determine the ability of boronic acid-based test PBP inhibitors to bind Penicillin Binding Proteins (PBPs), Bocillin-FL (fluorescently-labeled penicillin V; ThermoFisher Scientific) was used in a fluorescence polarization (FP) competition binding assay to assess inhibitor binding to PBP2, PBP3 or PBP4 from Escherichia coli (K12), PBP3 from Pseudomonas aeruginosa (PA01), PBP1a, PBP2 and PBP3 from Acinetobacter baumannii (ATCC 19606), and PBP2 from Neiserria gonorrheae (FA19). PBPs were cloned and purified as described previously (E. coli PBPs, King, D. T, et al., ACS Infectious Diseases 2015, 1, 175-184; P. aeruginosa PBP3, Han et. al., PNAS 2010, 107 (51), 22002-22007; A. baumannii PBPs, Penwell et. al., Antimicrob. Agents Chemother. 2015, 59 (3), 1680-1689; N. gonorrhoeae PBP2, Singh et. al., J Biol. Chem. 2019, 294 (38), 14020-14032). To establish assay conditions for competition binding, enzyme titration/saturation binding experiments were initially performed. Bocillin-FL was prepared at 0.2 μM in a buffer comprised of 50 mM Hepes (pH 8.0), 300 mM NaCl and 5% (v/v) glycerol for reactions with E. coli, P. aeruginosa and N. gonorrhoeae PBPs, and 25 mM Tris (pH 8.0), 200 mM NaCl and 10% (v/v) glycerol and 0.005% (v/v) Tween 20 for reactions with A. baumannii PBPs. Saturation binding was performed by mixing 40 μl of PBP solutions ranging in concentrations from 0-24 μM with 40 μl of the 0.2 μM Bocillin-FL solution, in individual wells of a black 384-well microplate. FP was measured immediately upon mixing (Excitation, 490 nm; Emission, 520 nm; g-factor, 0.96), using a Cytation3 (BioTek) microplate reader and measured continuously for up to 120 minutes. […] The competition binding assay (80 μl final volume) was validated using beta-lactams and PBPs at final concentrations of: 1.5 μM, E. coli PBP3; 0.75 μM, P. aeruginosa PBP3; 1 μM A. baumannii PBP1a; 2.5 μM A. baumannii PBP2; 0.2 μM A. baumannii PBP3; and […] N. gonorrhoeae PBP2. Bocillin-FL was at 0.1 μM (0.05 μM with A. baumannii PBP1a) and beta-lactam concentrations ranged from 0-1000 μM. […] Bocillin-FL was added and the FP immediately measured for up to 60 minutes (90 minutes for E. coli PBP2). […] The beta-lactam potency was reported as the concentration of beta-lactam required to reduce the amount of PBP bound-Bocillin-FL by 50% (EC50). […] Binding assays for boronic acid PBP inhibitors were performed in an identical fashion for the respective PBPs

Compound | MIC [1] [µg/mL] | EC50 [2] [µM] | EC50 (A. baumannii PBP1a) [µM]
NC1(CN2CCN(C(=O)N[C@@H](C(=O)N[C@H]3Cc4ccc(F)c(C(=O)O)c4OB3O)c3cc(F)c(O)c(O)c3Cl)C(=O)C2=O)CC1 (single isomer, unassigned) [Example 133] | 8 to 16 (≈ 12.3 to 24.5 µM) | < 10 | –
CCN1CCN(C(=O)NC(C(=O)N[C@H]2Cc3cccc(C(=O)O)c3OB2O)c2c(F)cc(N)cc2F)C(=O)C1=O (stereo partly drawn) [Example 181, (3R)-3-(2-(4-amino-2,6-difluorophenyl)-2-(4-ethyl-2,3-dioxopiperazine-1-carboxamido)acetamido)-2-hydroxy-3,4-dihydro-2H-benzo[e][1,2]oxaborinine-8-carboxylic acid] | – | > 100 | > 100
NCCN1CCN(C(=O)N[C@@H](C(=O)N[C@H]2Cc3ccc(F)c(C(=O)O)c3OB2O)c2cc(F)c(O)c(O)c2Cl)C(=O)C1=O (single isomer, unassigned) [Example 179] | 8 to 16 (≈ 12.8 to 25.6 µM) | > 100 | > 100
NCCN1CCN(C(=O)N[C@H](C(=O)N[C@H]2Cc3cccc(C(=O)O)c3OB2O)c2c(F)cc(O)cc2F)C(=O)C1=O (single isomer, unassigned) [Example 110] | – | > 100 | –
NS(=O)(=O)c1cc(O)cc(C(NC(=O)N2CCN(Cc3c(F)cc(O)c(O)c3Cl)C(=O)C2=O)C(=O)N[C@H]2Cc3cccc(C(=O)O)c3OB2O)c1 (stereo partly drawn) [Example 132, (3R)-3-(2-(4-(2-chloro-6-fluoro-3,4-dihydroxybenzyl)-2,3-dioxopiperazine-1-carboxamido)-2-(3-hydroxy-5-sulfamoylphenyl)acetamido)-2-hydroxy-3,4-dihydro-2H-benzo[e][1,2]oxaborinine-8-carboxylic acid] | > 128 | < 10 | 30 to 100
NS(=O)(=O)Nc1cccc(C(NC(=O)N2CCN(Cc3c(F)cc(O)c(O)c3Cl)C(=O)C2=O)C(=O)N[C@H]2Cc3cccc(C(=O)O)c3OB2O)c1 (stereo partly drawn) [Example 131, (3R)-3-(2-(4-(2-chloro-6-fluoro-3,4-dihydroxybenzyl)-2,3-dioxopiperazine-1-carboxamido)-2-(3-(sulfamoylamino)phenyl)acetamido)-2-hydroxy-3,4-dihydro-2H-benzo[e][1,2]oxaborinine-8-carboxylic acid] | > 128 | < 10 | 30 to 100
CCN1CCN(C(=O)N[C@@H](C(=O)N[C@H]2Cc3cccc(C(=O)O)c3OB2O)c2ccc(C(=O)O)cc2)C(=O)C1=O (single isomer, unassigned) [Example 124] | – | < 10 | –
C[C@@H](O)[C@@H](NC(=O)N1CCN(CCNC(=O)c2c(F)cc(O)c(O)c2Cl)C(=O)C1=O)C(=O)N[C@H]1Cc2ccc(F)c(C(=O)O)c2OB1O [Example 102, (R)-3-((2R,3R)-2-(4-(2-(2-chloro-6-fluoro-3,4-dihydroxybenzamido)ethyl)-2,3-dioxopiperazine-1-carboxamido)-3-hydroxybutanamido)-7-fluoro-2-hydroxy-3,4-dihydro-2H-benzo[e][1,2]oxaborinine-8-carboxylic acid] | 32 to 64 (≈ 45.9 to 91.7 µM) | 30 to 100 | > 100
CCN1CCN(C(=O)N[C@H](C(=O)N[C@H]2Cc3ccc(F)c(C(=O)O)c3OB2O)c2c(F)cc(O)c(O)c2Cl)C(=O)C1=O (single isomer, unassigned) [Example 125] | > 128 | > 100 | –
NC1(CN2CCN(C(=O)N[C@@H](C(=O)N[C@H]3Cc4ccc(F)c(C(=O)O)c4OB3O)c3c(F)cc(O)c(O)c3Cl)C(=O)C2=O)CC1 (single isomer, unassigned) [Example 134] | 32 to 64 (≈ 49.1 to 98.2 µM) | < 10 | > 100
NCCCN1CCN(C(=O)N[C@@H](C(=O)N[C@H]2Cc3ccc(F)c(C(=O)O)c3OB2O)c2cc(F)c(O)c(O)c2Cl)C(=O)C1=O (single isomer, unassigned) [Example 180] | 2 to 4 (≈ 3.13 to 6.25 µM) | > 100 | > 100
